In brackets after ≈: the same amount, converted by molar mass.
Assays:
[1] = Solubility of the compound in fasted state simulated intestinal fluid at pH 6.8 incubated for 1 hr in shaker and subsequently equilibrated for 72 hrs by LC/MS analysis; type: physicochemical
[2] = Solubility of the compound in 0.01N HCl at pH 2 incubated for 1 hr in shaker and subsequently equilibrated for 72 hrs by LC/MS analysis; type: physicochemical
[3] = Solubility of the compound in phosphate buffer solution at pH 7.4 incubated for 1 hr in shaker and subsequently equilibrated for 72 hrs by LC/MS analysis; type: physicochemical
[4] = Apparent permeability in pig LLC-PK1 cells at 5 uM; type: ADME, cell-based, Sus scrofa
[5] = Oral bioavailability in Sprague-Dawley rat at 5 mg/kg; type: ADME, organism-based; conditions: in vivo
[6] = Volume of distribution at steady state in Sprague-Dawley rat; type: ADME; conditions: in vivo, read-out: Vdss
[7] = Drug uptake in plasma of SCID-Beige mouse xenografted with human KMS-12-BM cells at 25 to 100 mg/kg, po administered once daily for 14 days and measured twice per week; type: ADME, organism-based; conditions: in vivo, 336 h
[8] = Volume of distribution at steady state in dog; type: ADME, Canis lupus familiaris; conditions: in vivo, read-out: Vdss
[9] = Oral bioavailability in dog; type: ADME, organism-based, Canis lupus familiaris; conditions: in vivo

Work on `C[C@H]1NC(=O)c2cc(-c3cccc4c(=O)n(C5CC5)c(NC(C)(C)C)nc34)[nH]c21` yielded a solubility thermodynamic at 72 h [1] of 175 µM (≈ 68.5 µg/mL), a solubility thermodynamic at 72 h [2] of 95 µM (≈ 37.2 µg/mL) and a solubility thermodynamic at 72 h [3] of 13 µM (≈ 5.09 µg/mL).

Work on `CC(C)n1c(NC(C)(C)C)nc2c(-c3cc4c([nH]3)[C@@H](C)NC4=O)cccc2c1=O` yielded a solubility thermodynamic at 72 h [1] of 68 µM (≈ 26.8 µg/mL), a solubility thermodynamic at 72 h [2] of 26 µM (≈ 10.2 µg/mL) and a solubility thermodynamic at 72 h [3] of 11 µM (≈ 4.33 µg/mL).

In the case of `C[C@H]1NC(=O)c2cc(-c3cccc4c(=O)n(C)c(NC5(C)CC5)nc34)[nH]c21`, the Papp at 5 µM [4] was 31 ×10⁻⁶ cm/s, the solubility thermodynamic at 72 h [1] was 344 µM (≈ 125 µg/mL) and the solubility thermodynamic at 72 h [2] was 500 µM (≈ 182 µg/mL). It also gave a solubility thermodynamic at 72 h [3] of 56 µM (≈ 20.4 µg/mL).

`C[C@H]1NC(=O)c2cc(-c3cccc4c(=O)n(C5CC5)c(NC5(C)CC5)nc34)[nH]c21` gave a bioavailability [5] of 68%, a Papp at 5 µM [4] of 23 ×10⁻⁶ cm/s and a Vd [6] of 1.2 L/kg. For the same compound, the solubility thermodynamic at 72 h [1] was 144 µM (≈ 56.1 µg/mL), the solubility thermodynamic at 72 h [2] was 458 µM (≈ 178 µg/mL) and the solubility thermodynamic at 72 h [3] was 78 µM (≈ 30.4 µg/mL).

Compound `C[C@H]1NC(=O)c2cc(-c3cccc4c(=O)n(C)c(NC(C)(C)C)nc34)[nH]c21` has a Papp at 5 µM [4] of 46 ×10⁻⁶ cm/s, a solubility thermodynamic at 72 h [1] of 104 µM (≈ 38 µg/mL) and a solubility thermodynamic at 72 h [2] of 60 µM (≈ 21.9 µg/mL). For the same compound, the solubility thermodynamic at 72 h [3] was 23 µM (≈ 8.41 µg/mL).

In the case of `C[C@H]1NC(=O)c2cc(-c3cccc4c(=O)n(CC5CC5)c(NC5(C)CC5)nc34)[nH]c21`, the solubility thermodynamic at 72 h [1] was 179 µM (≈ 72.2 µg/mL), the solubility thermodynamic at 72 h [2] was 214 µM (≈ 86.3 µg/mL) and the solubility thermodynamic at 72 h [3] was 13 µM (≈ 5.25 µg/mL).

In the case of `C[C@H]1NC(=O)c2cc(-c3cccc4c(=O)n(C(C)(C)C)c(NC(C)(C)C)nc34)[nH]c21`, the solubility thermodynamic at 72 h [1] was 58 µM (≈ 23.6 µg/mL), the solubility thermodynamic at 72 h [2] was under 5 µM and the solubility thermodynamic at 72 h [3] was under 5 µM.

Compound `C[C@H]1NC(=O)c2cc(-c3cccc4c(=O)n(CC5CC5)c(NC(C)(C)C)nc34)[nH]c21` has a solubility thermodynamic at 72 h [1] of 12 µM (≈ 4.87 µg/mL), a solubility thermodynamic at 72 h [2] of under 5 µM and a solubility thermodynamic at 72 h [3] of under 5 µM.

`C[C@H]1NC(=O)c2cc(-c3cccc4c(=O)n(C[C@H]5CN(C)CCO5)c(NC(C)(C)C)nc34)[nH]c21` showed a solubility thermodynamic at 72 h [1] of under 5 µM, a solubility thermodynamic at 72 h [2] of 256 µM (≈ 119 µg/mL) and a solubility thermodynamic at 72 h [3] of under 5 µM.

Work on `C[C@H]1NC(=O)c2cc(-c3cccc4c(=O)n(CC(C)(C)N)c(NC(C)(C)C)nc34)[nH]c21` yielded a solubility thermodynamic at 72 h [1] of 131 µM (≈ 55.4 µg/mL), a solubility thermodynamic at 72 h [2] of 347 µM (≈ 147 µg/mL) and a solubility thermodynamic at 72 h [3] of 26 µM (≈ 11 µg/mL).

With `C[C@H]1NC(=O)c2cc(-c3cccc4c(=O)n(CC5(O)CC5)c(NC5(C)CC5)nc34)[nH]c21` the solubility thermodynamic at 72 h [1] was 15 µM (≈ 6.29 µg/mL), the solubility thermodynamic at 72 h [2] was 43 µM (≈ 18 µg/mL) and the solubility thermodynamic at 72 h [3] was under 5 µM.

With `C[C@H]1NC(=O)c2cc(-c3cccc4c(=O)n([C@@H](C)c5cn(C)cn5)c(NC5(C)CC5)nc34)[nH]c21` the bioavailability [5] was 19%, the Papp at 5 µM [4] was 35 ×10⁻⁶ cm/s and the Vd [6] was 1 L/kg. It also gave a solubility thermodynamic at 72 h [1] of 469 µM (≈ 215 µg/mL), a solubility thermodynamic at 72 h [2] of 464 µM (≈ 212 µg/mL) and a solubility thermodynamic at 72 h [3] of 60 µM (≈ 27.5 µg/mL).

Compound `C[C@H]1NC(=O)c2cc(-c3cccc4c(=O)n(C5(C)CC5)c(NC(C)(C)C)nc34)[nH]c21` has a solubility thermodynamic at 72 h [1] of 36 µM (≈ 14.6 µg/mL), a solubility thermodynamic at 72 h [2] of under 5 µM and a solubility thermodynamic at 72 h [3] of under 5 µM.

Compound `C[C@H]1NC(=O)c2cc(-c3cccc4c(=O)n(C[C@H]5CCCO5)c(NC(C)(C)C)nc34)[nH]c21` has a solubility thermodynamic at 72 h [1] of 60 µM (≈ 26.1 µg/mL), a solubility thermodynamic at 72 h [2] of under 5 µM and a solubility thermodynamic at 72 h [3] of 19 µM (≈ 8.28 µg/mL).

Work on `C[C@H](c1cn(C)cn1)n1c(NC2(C)CC2)nc2c(-c3cc4c([nH]3)[C@@H](C)NC4=O)cccc2c1=O` yielded a solubility thermodynamic at 72 h [1] of 435 µM (≈ 199 µg/mL), a solubility thermodynamic at 72 h [2] of 485 µM (≈ 222 µg/mL) and a solubility thermodynamic at 72 h [3] of 53 µM (≈ 24.2 µg/mL).

`CC(c1cn(C)cn1)n1c(NC(C)(C)C)nc2c(-c3cc4c([nH]3)[C@@H](C)NC4=O)cccc2c1=O` (stereo not given in full) gave a solubility thermodynamic at 72 h [1] of 489 µM (≈ 225 µg/mL), a solubility thermodynamic at 72 h [2] of 423 µM (≈ 194 µg/mL) and a solubility thermodynamic at 72 h [3] of 86 µM (≈ 39.5 µg/mL).

With `C[C@H]1NC(=O)c2cc(-c3cccc4c(=O)n(CC5(N)CC5)c(NC(C)(C)C)nc34)[nH]c21` the solubility thermodynamic at 72 h [1] was 42 µM (≈ 17.7 µg/mL), the solubility thermodynamic at 72 h [2] was 500 µM (≈ 210 µg/mL) and the solubility thermodynamic at 72 h [3] was under 5 µM.

In the case of `C[C@H]1NC(=O)c2cc(-c3cccc4c(=O)n(C5CCC5)c(NC5(C)CC5)nc34)[nH]c21`, the solubility thermodynamic at 72 h [1] was 379 µM (≈ 153 µg/mL), the solubility thermodynamic at 72 h [2] was 441 µM (≈ 178 µg/mL) and the solubility thermodynamic at 72 h [3] was under 5 µM.

With `C[C@H]1NC(=O)c2cc(-c3cccc4c(=O)n(CC5COC5)c(NC(C)(C)C)nc34)[nH]c21` the solubility thermodynamic at 72 h [1] was 32 µM (≈ 13.5 µg/mL), the solubility thermodynamic at 72 h [2] was 14 µM (≈ 5.9 µg/mL) and the solubility thermodynamic at 72 h [3] was 6 µM (≈ 2.53 µg/mL).

For `C[C@H]1NC(=O)c2cc(-c3cccc4c(=O)n(C[C@@H]5CN(C)CCO5)c(NC(C)(C)C)nc34)[nH]c21`, the solubility thermodynamic at 72 h [1] was 283 µM (≈ 131 µg/mL), the solubility thermodynamic at 72 h [2] was 500 µM (≈ 232 µg/mL) and the solubility thermodynamic at 72 h [3] was 122 µM (≈ 56.7 µg/mL).

Compound `C[C@H]1NC(=O)c2cc(-c3cccc4c(=O)n(CC5(N)CC5)c(NC5(C)CC5)nc34)[nH]c21` has a solubility thermodynamic at 72 h [1] of 280 µM (≈ 117 µg/mL), a solubility thermodynamic at 72 h [2] of 454 µM (≈ 190 µg/mL) and a solubility thermodynamic at 72 h [3] of 134 µM (≈ 56.1 µg/mL).

Compound `C[C@H]1NC(=O)c2cc(-c3cccc4c(=O)n(C[C@@H]5CCCO5)c(NC(C)(C)C)nc34)[nH]c21` has a solubility thermodynamic at 72 h [1] of 15 µM (≈ 6.53 µg/mL), a solubility thermodynamic at 72 h [2] of 28 µM (≈ 12.2 µg/mL) and a solubility thermodynamic at 72 h [3] of 12 µM (≈ 5.23 µg/mL).

Compound `C[C@H]1NC(=O)c2cc(-c3cccc4c(=O)n(Cc5cn(C)cn5)c(NC(C)(C)C)nc34)[nH]c21` has a solubility thermodynamic at 72 h [1] of 131 µM (≈ 58.4 µg/mL), a solubility thermodynamic at 72 h [2] of 94 µM (≈ 41.9 µg/mL) and a solubility thermodynamic at 72 h [3] of 22 µM (≈ 9.8 µg/mL).

With `C[C@H]1NC(=O)c2cc(-c3cccc4c(=O)n(C5(C)CC5)c(NC5(C)CC5)nc34)[nH]c21` the bioavailability [5] was 85%, the Papp at 5 µM [4] was 32 ×10⁻⁶ cm/s and the Drug uptake [7] was “Dose-dependent effect”. The Vd [6] was 1.7 L/kg, the solubility thermodynamic at 72 h [1] was 185 µM (≈ 74.6 µg/mL) and the Vd [8] was 2.1 L/kg. It also gave a solubility thermodynamic at 72 h [2] of 490 µM (≈ 198 µg/mL), a bioavailability [9] of 56% and a solubility thermodynamic at 72 h [3] of 31 µM (≈ 12.5 µg/mL).

For `C[C@H]1NC(=O)c2cc(-c3cccc4c(=O)n(C(C)(C)C)c(NC5(C)CC5)nc34)[nH]c21`, the solubility thermodynamic at 72 h [1] was 326 µM (≈ 132 µg/mL), the solubility thermodynamic at 72 h [2] was 495 µM (≈ 201 µg/mL) and the solubility thermodynamic at 72 h [3] was under 5 µM.

`C[C@H]1NC(=O)c2cc(-c3cccc4c(=O)n(CC5(O)CC5)c(NC(C)(C)C)nc34)[nH]c21` showed a solubility thermodynamic at 72 h [1] of under 5 µM, a solubility thermodynamic at 72 h [2] of under 5 µM and a solubility thermodynamic at 72 h [3] of under 5 µM.

For `CC(c1cn(C)cn1)n1c(NC2(C)CC2)nc2c(-c3cc4c([nH]3)[C@@H](C)NC4=O)cccc2c1=O` (mixture of isomers), the solubility thermodynamic at 72 h [1] was 500 µM, the solubility thermodynamic at 72 h [2] was 500 µM and the solubility thermodynamic at 72 h [3] was 52 µM.
